System: Stress protein genes
Assay: DNA chip mRNA expression in yeast, stress protein genes (Table 6)
Type: cell-based, Saccharomyces cerevisiae S288C
Outline: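 First, S288C yeast grown in YPD at 25° C. are dosed in log phase with one toxicant (growth-inhibiting, not lethal) for 2 h. Next, total RNA is extracted and poly(A) mRNA isolated and reverse-transcribed with Cy3/Cy5-dUTP. Finally, whole-genome chip fluorescence is read relative to unexposed cells.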

## CCCCCCCCCCCCOS(=O)(=O)[O-].[Na+] [(18), sodium lauryl sulfate]
Yeast gene YAL005C
  The level of expressed mRNA in the presence of chemical substance/The level of expressed mRNA in the absence of chemical substance: 0.5
Yeast gene YAL015C
  The level of expressed mRNA in the presence of chemical substance/The level of expressed mRNA in the absence of chemical substance: 1.2
Yeast gene YBL075C
  The level of expressed mRNA in the presence of chemical substance/The level of expressed mRNA in the absence of chemical substance: 0.7
Yeast gene YBL093C
  The level of expressed mRNA in the presence of chemical substance/The level of expressed mRNA in the absence of chemical substance: 1.3
Yeast gene YBR044C
  The level of expressed mRNA in the presence of chemical substance/The level of expressed mRNA in the absence of chemical substance: 1.3
Yeast gene YBR054W
  The level of expressed mRNA in the presence of chemical substance/The level of expressed mRNA in the absence of chemical substance: 0.7
Yeast gene YBR067C
  The level of expressed mRNA in the presence of chemical substance/The level of expressed mRNA in the absence of chemical substance: 0.4
Yeast gene YBR072W
  The level of expressed mRNA in the presence of chemical substance/The level of expressed mRNA in the absence of chemical substance: 2.2
Yeast gene YBR126C
  The level of expressed mRNA in the presence of chemical substance/The level of expressed mRNA in the absence of chemical substance: 1.3
Yeast gene YBR169C
  The level of expressed mRNA in the presence of chemical substance/The level of expressed mRNA in the absence of chemical substance: 1.6
Yeast gene YCL035C
  The level of expressed mRNA in the presence of chemical substance/The level of expressed mRNA in the absence of chemical substance: 4.2
Yeast gene YCR021C
  The level of expressed mRNA in the presence of chemical substance/The level of expressed mRNA in the absence of chemical substance: 0.8
Yeast gene YCR060W
  The level of expressed mRNA in the presence of chemical substance/The level of expressed mRNA in the absence of chemical substance: 1.7
Yeast gene YCR083W
  The level of expressed mRNA in the presence of chemical substance/The level of expressed mRNA in the absence of chemical substance: 1.3
Yeast gene YDL022W
  The level of expressed mRNA in the presence of chemical substance/The level of expressed mRNA in the absence of chemical substance: 1.4
Yeast gene YDL025C
  The level of expressed mRNA in the presence of chemical substance/The level of expressed mRNA in the absence of chemical substance: 1.4
Yeast gene YDR033W
  The level of expressed mRNA in the presence of chemical substance/The level of expressed mRNA in the absence of chemical substance: 1.0
Yeast gene YDR077W
  The level of expressed mRNA in the presence of chemical substance/The level of expressed mRNA in the absence of chemical substance: 1.1
Yeast gene YDR098C
  The level of expressed mRNA in the presence of chemical substance/The level of expressed mRNA in the absence of chemical substance: 1.2
Yeast gene YDR155C
  The level of expressed mRNA in the presence of chemical substance/The level of expressed mRNA in the absence of chemical substance: 2.5
Yeast gene YDR258C
  The level of expressed mRNA in the presence of chemical substance/The level of expressed mRNA in the absence of chemical substance: 1.3
Yeast gene YDR293C
  The level of expressed mRNA in the presence of chemical substance/The level of expressed mRNA in the absence of chemical substance: 1.3
Yeast gene YDR436W
  The level of expressed mRNA in the presence of chemical substance/The level of expressed mRNA in the absence of chemical substance: 1.2
Yeast gene YDR513W
  The level of expressed mRNA in the presence of chemical substance/The level of expressed mRNA in the absence of chemical substance: 3.2
Yeast gene YDR519W
  The level of expressed mRNA in the presence of chemical substance/The level of expressed mRNA in the absence of chemical substance: 2.4
Yeast gene YEL030W
  The level of expressed mRNA in the presence of chemical substance/The level of expressed mRNA in the absence of chemical substance: 0.6
Yeast gene YEL039C
  The level of expressed mRNA in the presence of chemical substance/The level of expressed mRNA in the absence of chemical substance: 1.1
Yeast gene YER042W
  The level of expressed mRNA in the presence of chemical substance/The level of expressed mRNA in the absence of chemical substance: 1.1
Yeast gene YER057C
  The level of expressed mRNA in the presence of chemical substance/The level of expressed mRNA in the absence of chemical substance: 1.8
Yeast gene YER103W
  The level of expressed mRNA in the presence of chemical substance/The level of expressed mRNA in the absence of chemical substance: 0.6
Yeast gene YER125W
  The level of expressed mRNA in the presence of chemical substance/The level of expressed mRNA in the absence of chemical substance: 1.0
Yeast gene YFL014W
  The level of expressed mRNA in the presence of chemical substance/The level of expressed mRNA in the absence of chemical substance: 8.8
Yeast gene YFL016C
  The level of expressed mRNA in the presence of chemical substance/The level of expressed mRNA in the absence of chemical substance: 0.9
Yeast gene YFL020C
  The level of expressed mRNA in the presence of chemical substance/The level of expressed mRNA in the absence of chemical substance: 0.9
Yeast gene YFR052W
  The level of expressed mRNA in the presence of chemical substance/The level of expressed mRNA in the absence of chemical substance: 1.9
Yeast gene YGL073W
  The level of expressed mRNA in the presence of chemical substance/The level of expressed mRNA in the absence of chemical substance: 1.2
Yeast gene YGL115W
  The level of expressed mRNA in the presence of chemical substance/The level of expressed mRNA in the absence of chemical substance: 1.2
Yeast gene YGL181W
  The level of expressed mRNA in the presence of chemical substance/The level of expressed mRNA in the absence of chemical substance: 1.3
Yeast gene YGR088W
  The level of expressed mRNA in the presence of chemical substance/The level of expressed mRNA in the absence of chemical substance: 2.0
Yeast gene YHL028W
  The level of expressed mRNA in the presence of chemical substance/The level of expressed mRNA in the absence of chemical substance: 2.5
Yeast gene YHL046C
  The level of expressed mRNA in the presence of chemical substance/The level of expressed mRNA in the absence of chemical substance: 0.9
Yeast gene YHR030C
  The level of expressed mRNA in the presence of chemical substance/The level of expressed mRNA in the absence of chemical substance: 1.8
Yeast gene YHR057C
  The level of expressed mRNA in the presence of chemical substance/The level of expressed mRNA in the absence of chemical substance: 1.3
Yeast gene YHR104W
  The level of expressed mRNA in the presence of chemical substance/The level of expressed mRNA in the absence of chemical substance: 1.9
Yeast gene YIL011W
  The level of expressed mRNA in the presence of chemical substance/The level of expressed mRNA in the absence of chemical substance: 0.8
Yeast gene YIL033C
  The level of expressed mRNA in the presence of chemical substance/The level of expressed mRNA in the absence of chemical substance: 1.2
Yeast gene YIR037W
  The level of expressed mRNA in the presence of chemical substance/The level of expressed mRNA in the absence of chemical substance: 2.9
Yeast gene YIR038C
  The level of expressed mRNA in the presence of chemical substance/The level of expressed mRNA in the absence of chemical substance: 2.0
Yeast gene YJL128C
  The level of expressed mRNA in the presence of chemical substance/The level of expressed mRNA in the absence of chemical substance: 1.0
Yeast gene YJL158C
  The level of expressed mRNA in the presence of chemical substance/The level of expressed mRNA in the absence of chemical substance: 1.4
Yeast gene YJL159W
  The level of expressed mRNA in the presence of chemical substance/The level of expressed mRNA in the absence of chemical substance: 0.9
Yeast gene YJL165C
  The level of expressed mRNA in the presence of chemical substance/The level of expressed mRNA in the absence of chemical substance: 1.8
Yeast gene YJR045C
  The level of expressed mRNA in the presence of chemical substance/The level of expressed mRNA in the absence of chemical substance: 0.9
Yeast gene YJR090C
  The level of expressed mRNA in the presence of chemical substance/The level of expressed mRNA in the absence of chemical substance: 1.0
Yeast gene YKL161C
  The level of expressed mRNA in the presence of chemical substance/The level of expressed mRNA in the absence of chemical substance: 1.9
Yeast gene YKL163W
  The level of expressed mRNA in the presence of chemical substance/The level of expressed mRNA in the absence of chemical substance: 1.0
Yeast gene YKL164C
  The level of expressed mRNA in the presence of chemical substance/The level of expressed mRNA in the absence of chemical substance: 0.8
Yeast gene YKL210W
  The level of expressed mRNA in the presence of chemical substance/The level of expressed mRNA in the absence of chemical substance: 1.1
Yeast gene YKR053C
  The level of expressed mRNA in the presence of chemical substance/The level of expressed mRNA in the absence of chemical substance: 2.4
Yeast gene YLL024C
  The level of expressed mRNA in the presence of chemical substance/The level of expressed mRNA in the absence of chemical substance: 0.6
Yeast gene YLL026W
  The level of expressed mRNA in the presence of chemical substance/The level of expressed mRNA in the absence of chemical substance: 2.5
Yeast gene YLL039C
  The level of expressed mRNA in the presence of chemical substance/The level of expressed mRNA in the absence of chemical substance: 2.1
Yeast gene YLL060C
  The level of expressed mRNA in the presence of chemical substance/The level of expressed mRNA in the absence of chemical substance: 2.3
Yeast gene YLR006C
  The level of expressed mRNA in the presence of chemical substance/The level of expressed mRNA in the absence of chemical substance: 1.0
Yeast gene YLR109W
  The level of expressed mRNA in the presence of chemical substance/The level of expressed mRNA in the absence of chemical substance: 1.2
Yeast gene YLR259C
  The level of expressed mRNA in the presence of chemical substance/The level of expressed mRNA in the absence of chemical substance: 1.0
Yeast gene YML007W
  The level of expressed mRNA in the presence of chemical substance/The level of expressed mRNA in the absence of chemical substance: 1.4
Yeast gene YML070W
  The level of expressed mRNA in the presence of chemical substance/The level of expressed mRNA in the absence of chemical substance: 1.3
Yeast gene YMR021C
  The level of expressed mRNA in the presence of chemical substance/The level of expressed mRNA in the absence of chemical substance: 3.4
Yeast gene YMR173W
  The level of expressed mRNA in the presence of chemical substance/The level of expressed mRNA in the absence of chemical substance: 1.8
Yeast gene YMR186W
  The level of expressed mRNA in the presence of chemical substance/The level of expressed mRNA in the absence of chemical substance: 1.1
Yeast gene YNL064C
  The level of expressed mRNA in the presence of chemical substance/The level of expressed mRNA in the absence of chemical substance: 0.7
Yeast gene YNL160W
  The level of expressed mRNA in the presence of chemical substance/The level of expressed mRNA in the absence of chemical substance: 1.0
Yeast gene YNL241C
  The level of expressed mRNA in the presence of chemical substance/The level of expressed mRNA in the absence of chemical substance: 1.0
Yeast gene YNR076W
  The level of expressed mRNA in the presence of chemical substance/The level of expressed mRNA in the absence of chemical substance: 0.8
Yeast gene YOL064C
  The level of expressed mRNA in the presence of chemical substance/The level of expressed mRNA in the absence of chemical substance: 1.3
Yeast gene YOL161C
  The level of expressed mRNA in the presence of chemical substance/The level of expressed mRNA in the absence of chemical substance: 1.0
Yeast gene YOR008C
  The level of expressed mRNA in the presence of chemical substance/The level of expressed mRNA in the absence of chemical substance: 1.3
Yeast gene YOR009W
  The level of expressed mRNA in the presence of chemical substance/The level of expressed mRNA in the absence of chemical substance: 0.8
Yeast gene YOR010C
  The level of expressed mRNA in the presence of chemical substance/The level of expressed mRNA in the absence of chemical substance: 0.6
Yeast gene YOR027W
  The level of expressed mRNA in the presence of chemical substance/The level of expressed mRNA in the absence of chemical substance: 0.8
Yeast gene YOR208W
  The level of expressed mRNA in the presence of chemical substance/The level of expressed mRNA in the absence of chemical substance: 1.6
Yeast gene YPL059W
  The level of expressed mRNA in the presence of chemical substance/The level of expressed mRNA in the absence of chemical substance: 1.3
Yeast gene YPL106C
  The level of expressed mRNA in the presence of chemical substance/The level of expressed mRNA in the absence of chemical substance: 0.5
Yeast gene YPL140C
  The level of expressed mRNA in the presence of chemical substance/The level of expressed mRNA in the absence of chemical substance: 1.4
Yeast gene YPL194W
  The level of expressed mRNA in the presence of chemical substance/The level of expressed mRNA in the absence of chemical substance: 0.8
Yeast gene YPL223C
  The level of expressed mRNA in the presence of chemical substance/The level of expressed mRNA in the absence of chemical substance: 1.3
Yeast gene YPL240C
  The level of expressed mRNA in the presence of chemical substance/The level of expressed mRNA in the absence of chemical substance: 1.0
Yeast gene YPR005C
  The level of expressed mRNA in the presence of chemical substance/The level of expressed mRNA in the absence of chemical substance: 1.1
Yeast gene YPR026W
  The level of expressed mRNA in the presence of chemical substance/The level of expressed mRNA in the absence of chemical substance: 1.3

Reference: patent publication US8192962B2, “Processes for detecting toxic substances” (Daikin Industries, Ltd., priority 2001, dated 2012)
